The text below walks through data of patent US10040781B2, “Tank-binding kinase inhibitor compounds” (Gilead Sciences, Inc., priority 2014, dated 2018).

Like-named read-outs stand apart in the source and are kept apart here.

One assay concerns the target IKKε (Homo sapiens (Human), UniProt Q14164). Kind of assay: IKKε TR-FRET enzymatic assay. Format: biochemical. To be noted: read-out: IKKe IC50. In general terms: TR-FRET usually uses a lanthanide donor and a delayed reading to cut background.
For another assay, the target named is hJAK2 (Homo sapiens (Human), UniProt O60674). Kind of assay: hJAK2 LANCE TR-FRET enzymatic assay. Format: biochemical. To be noted: read-out: JAK2 IC50.
Sequence of hJAK2 (O60674 whole entry): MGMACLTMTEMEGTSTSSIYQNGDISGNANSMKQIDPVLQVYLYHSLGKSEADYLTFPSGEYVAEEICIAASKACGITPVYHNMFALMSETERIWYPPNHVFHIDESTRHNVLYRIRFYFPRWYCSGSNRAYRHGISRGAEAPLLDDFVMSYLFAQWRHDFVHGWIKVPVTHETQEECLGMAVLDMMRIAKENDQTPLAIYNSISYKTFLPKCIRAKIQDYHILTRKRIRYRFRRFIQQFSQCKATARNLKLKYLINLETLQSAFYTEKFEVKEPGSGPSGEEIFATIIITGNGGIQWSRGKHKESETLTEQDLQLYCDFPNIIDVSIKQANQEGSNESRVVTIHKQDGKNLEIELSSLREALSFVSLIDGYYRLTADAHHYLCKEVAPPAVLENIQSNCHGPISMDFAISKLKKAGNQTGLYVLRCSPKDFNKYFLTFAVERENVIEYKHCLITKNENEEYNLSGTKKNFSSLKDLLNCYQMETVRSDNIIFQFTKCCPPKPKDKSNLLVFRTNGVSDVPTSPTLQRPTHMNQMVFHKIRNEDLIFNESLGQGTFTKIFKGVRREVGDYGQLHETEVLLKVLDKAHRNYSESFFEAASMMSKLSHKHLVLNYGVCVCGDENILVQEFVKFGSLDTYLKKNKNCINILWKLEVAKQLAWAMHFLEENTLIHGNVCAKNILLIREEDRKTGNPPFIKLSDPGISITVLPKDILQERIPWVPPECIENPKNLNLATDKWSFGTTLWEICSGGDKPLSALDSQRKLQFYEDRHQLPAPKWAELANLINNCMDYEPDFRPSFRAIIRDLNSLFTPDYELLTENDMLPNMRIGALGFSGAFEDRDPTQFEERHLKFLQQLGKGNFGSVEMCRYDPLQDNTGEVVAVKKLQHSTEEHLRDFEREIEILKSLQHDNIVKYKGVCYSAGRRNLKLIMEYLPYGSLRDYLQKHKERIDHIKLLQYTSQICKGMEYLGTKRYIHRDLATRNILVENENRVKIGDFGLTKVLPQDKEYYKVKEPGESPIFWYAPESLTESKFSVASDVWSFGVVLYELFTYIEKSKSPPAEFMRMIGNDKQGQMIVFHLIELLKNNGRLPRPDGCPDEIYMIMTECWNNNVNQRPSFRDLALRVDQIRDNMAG
For a further assay, the target named is TBK1 (Homo sapiens (Human), UniProt Q9UHD2). Kind of assay: TBK1 TR-FRET enzymatic assay.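 Note: phosphorylation of a biotinylated Ser/Thr peptide by purified full-length recombinant TBK1, read by TR-FRET after 240 min at 25 °C, IC50 is the geometric mean of at least four runs.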
Sequence of TBK1 (Q9UHD2 whole entry): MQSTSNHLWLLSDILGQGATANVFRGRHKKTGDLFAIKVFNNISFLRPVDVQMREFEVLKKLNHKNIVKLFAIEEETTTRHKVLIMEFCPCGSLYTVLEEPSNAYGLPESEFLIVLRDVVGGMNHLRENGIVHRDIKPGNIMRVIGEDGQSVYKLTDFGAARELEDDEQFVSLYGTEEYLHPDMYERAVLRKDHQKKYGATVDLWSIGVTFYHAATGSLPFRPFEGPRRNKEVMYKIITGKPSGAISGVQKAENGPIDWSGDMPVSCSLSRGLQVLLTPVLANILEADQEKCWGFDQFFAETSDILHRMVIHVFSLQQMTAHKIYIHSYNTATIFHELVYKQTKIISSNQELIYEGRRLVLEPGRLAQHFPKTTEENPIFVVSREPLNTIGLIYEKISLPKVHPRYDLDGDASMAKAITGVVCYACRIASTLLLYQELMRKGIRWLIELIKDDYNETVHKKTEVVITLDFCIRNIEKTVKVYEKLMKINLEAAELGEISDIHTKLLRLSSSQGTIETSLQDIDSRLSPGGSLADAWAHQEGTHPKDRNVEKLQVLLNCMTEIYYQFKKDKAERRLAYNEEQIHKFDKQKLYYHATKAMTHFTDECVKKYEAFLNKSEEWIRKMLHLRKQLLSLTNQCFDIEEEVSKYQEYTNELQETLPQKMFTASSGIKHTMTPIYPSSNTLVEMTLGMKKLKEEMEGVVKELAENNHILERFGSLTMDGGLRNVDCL
[1] abbreviates: TR-FRET, 2×Km ATP, geometric mean of minimum four determinations.

Sequence of IKKε (Q14164 whole entry): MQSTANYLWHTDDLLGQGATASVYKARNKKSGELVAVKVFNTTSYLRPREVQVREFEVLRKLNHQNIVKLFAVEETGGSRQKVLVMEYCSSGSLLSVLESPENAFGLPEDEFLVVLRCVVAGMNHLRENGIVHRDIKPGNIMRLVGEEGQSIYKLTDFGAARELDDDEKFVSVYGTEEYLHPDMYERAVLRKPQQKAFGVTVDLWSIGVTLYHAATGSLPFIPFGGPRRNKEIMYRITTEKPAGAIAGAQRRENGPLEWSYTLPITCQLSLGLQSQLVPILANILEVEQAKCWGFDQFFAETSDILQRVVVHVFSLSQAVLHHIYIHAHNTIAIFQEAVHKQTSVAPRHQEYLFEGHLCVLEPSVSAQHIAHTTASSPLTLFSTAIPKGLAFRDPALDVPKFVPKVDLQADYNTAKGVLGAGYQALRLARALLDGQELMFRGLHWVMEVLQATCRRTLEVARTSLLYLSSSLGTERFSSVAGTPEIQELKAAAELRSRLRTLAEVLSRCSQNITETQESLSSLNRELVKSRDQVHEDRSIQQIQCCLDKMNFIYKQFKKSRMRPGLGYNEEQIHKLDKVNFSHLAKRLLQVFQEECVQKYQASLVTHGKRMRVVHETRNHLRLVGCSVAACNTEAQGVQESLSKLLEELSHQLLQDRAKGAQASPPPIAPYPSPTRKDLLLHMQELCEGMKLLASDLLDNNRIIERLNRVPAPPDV

As a reminder, the IC50 is the concentration needed to halve the response being measured. On to `C[C@H](O)C(=O)N1CC[C@H](Oc2ccc(-c3ncnc(Nc4ccc(N5CCN(C6COC6)CC5)cc4)n3)cc2C#N)C[C@@H]1C` [Example 181, 2-(((2S,4S)-1-((S)-2-hydroxypropanoyl)-2-methylpiperidin-4-yl)oxy)-5-(4-((4-(4-(oxetan-3-yl)piperazin-1-yl)phenyl)amino)-1,3,5-triazin-2-yl)benzonitrile], for which the results for the half-maximal inhibitory concentration (IC50) on IKKε, on hJAK2 and on TBK1 were 0.02 µM, 0.432 µM and 0.01 µM, respectively.
For `C[C@H]1CN(C2COC2)CCN1c1ccc(Nc2ncnc(-c3ccc(O[C@H]4CCN(C(=O)CC#N)CC4(F)F)c(C#N)c3)n2)cc1` [Example 253, 2-(((S)-1-(2-cyanoacetyl)-3,3-difluoropiperidin-4-yl)oxy)-5-(4-((4-((S)-2-methyl-4-(oxetan-3-yl)piperazin-1-yl)phenyl)amino)-1,3,5-triazin-2-yl)benzonitrile], the IC50 at IKKε came to 0.002 µM; on hJAK2, 0.061 µM; at TBK1, 0.003 µM.
In the case of `CC(C)(O)CC(=O)N1CC[C@H](Oc2ccc(-c3ncnc(Nc4ccc(N5CCN(C6COC6)CC5)cc4)n3)cc2C#N)[C@H](F)C1` [Example 553, 2-(((3R,4S)-3-fluoro-1-(3-hydroxy-3-methylbutanoyl)piperidin-4-yl)oxy)-5-(4-((4-(4-(oxetan-3-yl)piperazin-1-yl)phenyl)amino)-1,3,5-triazin-2-yl)benzonitrile], the IC50 on IKKε (setting [1]) is 0.051 µM; on hJAK2 it was at least 1 µM; against TBK1, 0.038 µM.
For `N#Cc1cc(-c2ncnc(Nc3ccc(N4CCN(C5COC5)CC4)cc3)n2)ccc1OC1CNC(=O)C(F)(F)C1` (stereo not drawn) [Example 446, 2-((5,5-difluoro-6-oxopiperidin-3-yl)oxy)-5-(4-((4-(4-(oxetan-3-yl)piperazin-1-yl)phenyl)amino)-1,3,5-triazin-2-yl)benzonitrile] the same measures were 0.033 µM, 0.153 µM and 0.048 µM.
`C[C@H](O)C(=O)N1CC[C@H](Oc2ccc(-c3ncnc(Nc4ccc([C@H]5CCCN5)cc4)n3)cc2C#N)[C@H](F)C1` [Example 615, 2-(((3R,4S)-3-fluoro-1-((S)-2-hydroxypropanoyl)piperidin-4-yl)oxy)-5-(4-((4-((R)-pyrrolidin-2-yl)phenyl)amino)-1,3,5-triazin-2-yl)benzonitrile]: the IC50 is 0.001 µM at IKKε, at least 1 µM at hJAK2 and 0.004 µM against TBK1.
`COCC(=O)N1CC[C@H](Oc2ccc(-c3ncnc(Nc4ccc(C5CCN(C)CC5)c(C)c4)n3)cc2C#N)[C@H](F)C1` [Example 489, 2-(((3R,4S)-3-fluoro-1-(2-methoxyacetyl)piperidin-4-yl)oxy)-5-(4-((3-methyl-4-(1-methylpiperidin-4-yl)phenyl)amino)-1,3,5-triazin-2-yl)benzonitrile]: the figures for the IC50 at IKKε (setting [1]), on hJAK2 and on TBK1 were 0.001 µM, 0.183 µM and 0.004 µM, respectively.
Turning to `N#Cc1cc(-c2ncnc(Nc3ccc(N4CCN(C5COC5)CC4)cc3)n2)ccc1N1CCC2(C1)OCCO2` [Example 208, 5-(4-((4-(4-(oxetan-3-yl)piperazin-1-yl)phenyl)amino)-1,3,5-triazin-2-yl)-2-(1,4-dioxa-7-azaspiro[4.4]nonan-7-yl)benzonitrile], the IC50 on IKKε came to 0.283 µM; on hJAK2 it was 0.33 µM; against TBK1, 0.064 µM.
As for `N#Cc1cc(-c2ncnc(Nc3ccc(N4CCN(C5COC5)CC4)cc3)n2)ccc1O[C@H]1CCN(C(=O)c2nc(N)n[nH]2)C[C@H]1F` [Example 334, 2-(((3R,4S)-1-(3-amino-1H-1,2,4-triazole-5-carbonyl)-3-fluoropiperidin-4-yl)oxy)-5-(4-((4-(4-(oxetan-3-yl)piperazin-1-yl)phenyl)amino)-1,3,5-triazin-2-yl)benzonitrile], the concentration for half-maximal inhibition (IC50) is 0.002 µM at IKKε, 0.08 µM on hJAK2 and 0.016 µM at TBK1.
As to `CC(=O)N1CC[C@H](Oc2ccc(-c3ncnc(Nc4ccc(N5CCO[C@@H](CO)C5)cc4)n3)cc2C#N)C(F)(F)C1` [Example 230, 2-(((5)-1-acetyl-3,3-difluoropiperidin-4-yl)oxy)-5-(4-((4-((R)-2-(hydroxymethyl)morpholino)phenyl)amino)-1,3,5-triazin-2-yl)benzonitrile], the IC50 on IKKε is 0.002 µM; at hJAK2 it was 0.233 µM; against TBK1, 0.004 µM.
For `COc1cc(Nc2ncnc(-c3ccc(OC4CCOCC4)c(C#N)c3)n2)ccc1N1CCN(C(C)=O)CC1` [Example 32, 5-(4-((4-(4-acetylpiperazin-1-yl)-3-methoxyphenyl)amino)-1,3,5-triazin-2-yl)-2-((tetrahydro-2H-pyran-4-yl)oxy)benzonitrile] the same measures were 0.002 µM, 0.068 µM and 0.001 µM.
As for `CC(=O)N1CCN(c2ccc(Nc3ncnc(-c4ccc(OC5CCOCC5)c(C#N)c4)n3)cc2)CC1` [Example 11, 5-(4-((4-(4-acetylpiperazin-1-yl)phenyl)amino)-1,3,5-triazin-2-yl)-2-((tetrahydro-2H-pyran-4-yl)oxy)benzonitrile], the IC50 at IKKε stood at 0.004 µM; at hJAK2 it was 0.224 µM; at TBK1 it was 0.001 µM.
Turning to `C[C@H](O)CN1CCN(c2ccc(Nc3ncnc(-c4ccc(O[C@H]5CCN(C(=O)[C@H](C)O)C[C@H]5F)c(C#N)c4)n3)cc2)CC1` [Example 573, 2-(((3R,4S)-3-fluoro-1-((S)-2-hydroxypropanoyl)piperidin-4-yl)oxy)-5-(4-((4-(4-((S)-2-hydroxypropyl)piperazin-1-yl)phenyl)amino)-1,3,5-triazin-2-yl)benzonitrile], the IC50 on IKKε (setting [1]) stood at 0.001 µM; at hJAK2, 0.969 µM; against TBK1, 0.003 µM.
In the case of `C[C@H](O)C(=O)N1CC[C@H](Oc2ccc(-c3ncnc(Nc4ccc(N5CCN(CC6COC6)CC5)cc4)n3)cc2C#N)[C@H](F)C1` [Example 308, 2-(((3R,4S)-3-fluoro-1-((S)-2-hydroxypropanoyl)piperidin-4-yl)oxy)-5-(4-((4-(4-(oxetan-3-ylmethyl)piperazin-1-yl)phenyl)amino)-1,3,5-triazin-2-yl)benzonitrile], the IC50 on IKKε is 0.001 µM; at hJAK2, 0.475 µM; against TBK1, 0.002 µM.
For `N#Cc1cc(-c2ncnc(Nc3ccc(N4CCN(C5COC5)CC4)cc3)n2)ccc1O[C@H]1CCN(C(=O)CCO)C[C@H]1F` [Example 139, 2-(((3R,4S)-3-fluoro-1-(3-hydroxypropanoyl)piperidin-4-yl)oxy)-5-(4-((4-(4-(oxetan-3-yl)piperazin-1-yl)phenyl)amino)-1,3,5-triazin-2-yl)benzonitrile] the same measures were 0.007 µM, 0.408 µM and 0.004 µM.
With `C[C@H](O)C(=O)N1C[C@@H](F)[C@@H](Oc2ccc(-c3ncnc(Nc4ccc(N5CCN(C6COC6)CC5)cc4)n3)cc2C#N)C[C@@H]1C` [Example 415, 2-(((2S,4S,5R)-5-fluoro-1-((S)-2-hydroxypropanoyl)-2-methylpiperidin-4-yl)oxy)-5-(4-((4-(4-(oxetan-3-yl)piperazin-1-yl)phenyl)amino)-1,3,5-triazin-2-yl)benzonitrile], the IC50 on IKKε (setting [1]) was 0.142 µM; at hJAK2 it was at least 1 µM; against TBK1, 0.058 µM.
